The experiment deals with T1, M72 odorant receptor (olfr160) (Mus musculus, UniProt A1L3R1).
T1 construct: full-length native receptor in its own olfactory sensory neurons of gene-targeted M72-GFP mice (neonatal epithelium); GFP serves as cell marker
T1 sequence (A1L3R1 1-309): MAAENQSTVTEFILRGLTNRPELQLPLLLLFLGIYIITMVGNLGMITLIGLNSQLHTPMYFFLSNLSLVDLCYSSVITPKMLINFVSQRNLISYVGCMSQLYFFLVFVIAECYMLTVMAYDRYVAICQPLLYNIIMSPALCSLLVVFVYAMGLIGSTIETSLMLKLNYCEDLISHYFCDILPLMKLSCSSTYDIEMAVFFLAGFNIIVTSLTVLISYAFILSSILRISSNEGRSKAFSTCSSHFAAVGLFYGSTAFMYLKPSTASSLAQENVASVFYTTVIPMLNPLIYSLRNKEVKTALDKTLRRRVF
Description: perforated patch clamp of dendritic knobs of M72-expressing OSNs, Hill fit. The note with it: 20-23 °C, pH 7.4; native OSNs; odorant from DMSO stock by pressure ejection; lower end of range, strongest ligand. The class given is cell-based. An excerpt: perforated patch clamp of dendritic knobs of M72-expressing OSNs, Hill fit on M72 odorant receptor (olfr160) | 2HA is the strongest ligand yet identified for M72 | Normalized dose–response curves for seven M72 ligands fitted by the Hill equation

As usually defined, the EC50 is the concentration at which the effect is half-maximal. Higher therefore signals lower potency in that assay. Take `CC(=O)c1ccccc1O` [2HA, 2-hydroxyacetophenone]: a half-maximal effect (EC50) was put at 30 nM.

(Values after publication PMC5890244, “Stimulus dependent diversity and stereotypy in the output of an olfactory functional unit” (Nature Communications, 2018).)
